According to ChEMBL document CHEMBL4350988, “Development of selective small molecule MDM2 degraders based on nutlin” (Eur J Med Chem, 2019):
Active and inactive are the calls of the source. No cut-off for these calls is given here.

Legend:
RS4-11 [1] = assay: Antiproliferative activity against human RS4:11 cells assessed as reduction in cell viability after 48 hrs by MTT assay; type: functional, cell-based; settings: RS4-11, 48 h
RS4-11 [2] = assay: Antiproliferative activity against human RS4:11 cells assessed as reduction in cell viability at 100 nM after 48 hrs by MTT assay; type: functional, cell-based
[3] = target: T1, Protein cereblon/E3 ubiquitin-protein ligase Mdm2 (Homo sapiens, UniProt Q00987+Q96SW2); assay: Protac activity at CRBN/MDM2 in human RS4:11 cells assessed as increase in degradation of MDM2 at 10 to 100 nM measured after 12 hrs by Western blot analysis; type: cell-based
Target sequence in this assay (Q00987 whole entry, looked up): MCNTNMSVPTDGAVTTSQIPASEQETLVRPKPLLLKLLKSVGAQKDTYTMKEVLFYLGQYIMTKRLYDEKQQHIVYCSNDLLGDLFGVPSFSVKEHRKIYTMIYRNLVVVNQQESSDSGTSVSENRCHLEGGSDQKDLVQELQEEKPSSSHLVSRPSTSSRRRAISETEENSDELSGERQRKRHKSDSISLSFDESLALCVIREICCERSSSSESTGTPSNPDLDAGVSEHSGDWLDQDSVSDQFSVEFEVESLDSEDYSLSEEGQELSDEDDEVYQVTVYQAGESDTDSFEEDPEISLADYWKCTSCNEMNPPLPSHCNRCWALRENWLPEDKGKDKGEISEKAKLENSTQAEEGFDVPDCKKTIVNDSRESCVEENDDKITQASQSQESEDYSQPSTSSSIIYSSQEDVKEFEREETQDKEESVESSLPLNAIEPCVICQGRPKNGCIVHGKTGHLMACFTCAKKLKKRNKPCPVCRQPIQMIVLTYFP
Target sequence in this assay (Q96SW2 whole entry, looked up): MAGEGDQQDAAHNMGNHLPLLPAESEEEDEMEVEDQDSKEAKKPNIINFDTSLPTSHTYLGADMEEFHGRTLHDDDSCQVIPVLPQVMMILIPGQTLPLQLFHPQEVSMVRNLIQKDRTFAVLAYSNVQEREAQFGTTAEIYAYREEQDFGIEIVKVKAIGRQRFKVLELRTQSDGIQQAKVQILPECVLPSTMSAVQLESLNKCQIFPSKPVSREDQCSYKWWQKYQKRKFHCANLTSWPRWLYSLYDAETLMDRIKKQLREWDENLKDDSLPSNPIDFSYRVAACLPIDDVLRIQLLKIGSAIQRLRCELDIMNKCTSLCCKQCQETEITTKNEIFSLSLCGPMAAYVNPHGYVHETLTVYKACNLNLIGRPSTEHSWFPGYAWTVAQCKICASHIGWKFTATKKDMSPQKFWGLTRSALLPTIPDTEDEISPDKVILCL

[4] = target: T1, Protein cereblon/E3 ubiquitin-protein ligase Mdm2; assay: Protac activity at CRBN/MDM2 in human RS4:11 cells assessed as increase in degradation of MDM2 at 100 nM by Western blot analysis; type: cell-based
Target sequence in this assay (Q00987 whole entry, looked up): as the sequence (Q00987 whole entry, looked up) above
Target sequence in this assay (Q96SW2 whole entry, looked up): as the sequence (Q96SW2 whole entry, looked up) above

[5] = target: T1, Protein cereblon/E3 ubiquitin-protein ligase Mdm2; assay: Protac activity at CRBN/MDM2 in human RS4:11 cells assessed as increase in accumulation of p53 at 100 nM by Western blot analysis; type: cell-based
Target sequence in this assay (Q00987 whole entry, looked up): as the sequence (Q00987 whole entry, looked up) above
Target sequence in this assay (Q96SW2 whole entry, looked up): as the sequence (Q96SW2 whole entry, looked up) above

[6] = target: T1, Protein cereblon/E3 ubiquitin-protein ligase Mdm2; assay: Protac activity at CRBN/MDM2 in human RS4:11 cells assessed as increase in degradation of MDM2 by Western blot analysis; type: cell-based; settings: TDE = time-dependent effect
Target sequence in this assay (Q00987 whole entry, looked up): as the sequence (Q00987 whole entry, looked up) above
Target sequence in this assay (Q96SW2 whole entry, looked up): as the sequence (Q96SW2 whole entry, looked up) above

[7] = target: T1, Protein cereblon/E3 ubiquitin-protein ligase Mdm2; assay: Protac activity at CRBN/MDM2 in human RS4:11 cells assessed as maximal MDM2 degradation level at 100 nM after 24 hrs by Western blot analysis relative to control; type: cell-based
Target sequence in this assay (Q00987 whole entry, looked up): as the sequence (Q00987 whole entry, looked up) above
Target sequence in this assay (Q96SW2 whole entry, looked up): as the sequence (Q96SW2 whole entry, looked up) above

[8] = target: T1, Protein cereblon/E3 ubiquitin-protein ligase Mdm2; assay: Protac activity at CRBN/MDM2 in human RS4:11 cells assessed as MDM2 degradation by Western blot analysis; type: cell-based
[9] = target: T1, Protein cereblon/E3 ubiquitin-protein ligase Mdm2; assay: Protac activity at CRBN/MDM2 in human RS4:11 cells assessed as reduction in MDM2 degradation at 100 nM preincubated with ((4S,5R)-2-(4-(tert-butyl)-2-ethoxyphenyl)-4,5-bis(4-chlorophenyl)-4,5-dihydro-1H-imidazol-1-yl)(piperazin-1-yl)methanone for 2 hrs followed by compound addition measured after 4 hrs by Western blot analysis; type: cell-based
Target sequence in this assay (Q00987 whole entry, looked up): as the sequence (Q00987 whole entry, looked up) above
Target sequence in this assay (Q96SW2 whole entry, looked up): as the sequence (Q96SW2 whole entry, looked up) above

[10] = target: T1, Protein cereblon/E3 ubiquitin-protein ligase Mdm2; assay: Protac activity at CRBN/MDM2 in human RS4:11 cells assessed as reduction in MDM2 degradation at 100 nM preincubated with lenalidomide for 2 hrs followed by compound addition measured after 4 hrs by Western blot analysis; type: cell-based
[11] = target: T1, Protein cereblon/E3 ubiquitin-protein ligase Mdm2; assay: Protac activity at CRBN/MDM2 in human RS4:11 cells assessed as MDM2 degradation at 100 nM preincubated with proteasome inhibitior MG132 for 2 hrs followed by compound addition measured after 4 hrs by Western blot analysis; type: cell-based
[12] = target: T1, Protein cereblon/E3 ubiquitin-protein ligase Mdm2; assay: Protac activity at CRBN/MDM2 in human RS4:11 cells assessed as upregulation of MDM2 expression at 100 nM measured after 6 hrs by qRT-PCR method; type: cell-based
[13] = target: T1, Protein cereblon/E3 ubiquitin-protein ligase Mdm2; assay: Protac activity at CRBN/MDM2 in human RS4:11 cells assessed as upregulation of P21 expression at 100 nM measured after 6 hrs by qRT-PCR method; type: cell-based
[14] = target: T1, Protein cereblon/E3 ubiquitin-protein ligase Mdm2; assay: Protac activity at CRBN/MDM2 in human RS4:11 cells assessed as effect on TP53 expression at 30 to 100 nM measured after 6 hrs by qRT-PCR method; type: cell-based
[15] = target: T1, Protein cereblon/E3 ubiquitin-protein ligase Mdm2; assay: Protac activity at CRBN/MDM2 in human RS4:11 cells assessed as degradation of MDM2 at 100 nM to 1 uM by Westernblot analysis; type: cell-based
[16] = target: T1, Protein cereblon/E3 ubiquitin-protein ligase Mdm2; assay: Protac activity at CRBN/MDM2 in human RS4:11 cells assessed as upregulation of P53 expression at 100 nM to 1 uM by Westernblot analysis; type: cell-based
[17] = target: T1, Protein cereblon/E3 ubiquitin-protein ligase Mdm2; assay: Protac activity at CRBN/MDM2 in human RS4:11 cells assessed as increase in P21 expression at 100 nM to 1 uM by Westernblot analysis; type: cell-based
RS4-11 [18] = assay: Induction of apoptosis in human RS4:11 cells assessed as PARP cleavage at 100 nM to 1 uM by Westernblot analysis; type: functional, cell-based
RS4-11 [19] = assay: Induction of apoptosis in human RS4:11 cells assessed as caspase3 expression at 100 nM to 1 uM by Westernblot analysis; type: functional, cell-based
RS4-11 [20] = assay: Induction of apoptosis in human RS4:11 cells assessed as viable cells at 10 nM after 24 hrs by Annexin-V-FITC/propidium iodide staining based flow cytometry relative to control; type: functional; settings: RS4-11, 24 h, read-out: Activity
RS4-11 [21] = assay: Induction of apoptosis in human RS4:11 cells assessed as early apoptotic cells at 10 nM after 24 hrs by Annexin-V-FITC/propidium iodide staining based flow cytometry relative to control; type: functional
RS4-11 [22] = assay: Induction of apoptosis in human RS4:11 cells assessed as late apoptotic cells at 10 nM after 24 hrs by Annexin-V-FITC/propidium iodide staining based flow cytometry relative to control; type: functional
RS4-11 [23] = assay: Induction of apoptosis in human RS4:11 cells assessed as necrotic cells at 10 nM after 24 hrs by Annexin-V-FITC/propidium iodide staining based flow cytometry relative to control; type: functional
RS4-11 [24] = assay: Induction of apoptosis in human RS4:11 cells assessed as viable cells at 100 nM after 24 hrs by Annexin-V-FITC/propidium iodide staining based flow cytometry relative to control; type: functional; settings: RS4-11, 24 h, read-out: Activity
RS4-11 [25] = assay: Induction of apoptosis in human RS4:11 cells assessed as early apoptotic cells at 100 nM after 24 hrs by Annexin-V-FITC/propidium iodide staining based flow cytometry relative to control; type: functional
RS4-11 [26] = assay: Induction of apoptosis in human RS4:11 cells assessed as late apoptotic cells at 100 nM after 24 hrs by Annexin-V-FITC/propidium iodide staining based flow cytometry relative to control; type: functional
RS4-11 [27] = assay: Induction of apoptosis in human RS4:11 cells assessed as necrotic cells at 100 nM after 24 hrs by Annexin-V-FITC/propidium iodide staining based flow cytometry relative to control; type: functional
RS4-11 [28] = assay: Induction of apoptosis in human RS4:11 cells assessed as viable cells at 1000 nM after 24 hrs by Annexin-V-FITC/propidium iodide staining based flow cytometry relative to control; type: functional; settings: RS4-11, 24 h, read-out: Activity
RS4-11 [29] = assay: Induction of apoptosis in human RS4:11 cells assessed as early apoptotic cells at 1000 nM after 24 hrs by Annexin-V-FITC/propidium iodide staining based flow cytometry relative to control; type: functional
RS4-11 [30] = assay: Induction of apoptosis in human RS4:11 cells assessed as late apoptotic cells at 1000 nM after 24 hrs by Annexin-V-FITC/propidium iodide staining based flow cytometry relative to control; type: functional
RS4-11 [31] = assay: Induction of apoptosis in human RS4:11 cells assessed as necrotic cells at 1000 nM after 24 hrs by Annexin-V-FITC/propidium iodide staining based flow cytometry relative to control; type: functional
[32] = target: T1, Protein cereblon/E3 ubiquitin-protein ligase Mdm2; assay: Protac activity at CRBN/MDM2 in human RS4:11 cells assessed as PARP cleavage after 6 hrs by Western blot analysis; type: cell-based
[33] = target: T1, Protein cereblon/E3 ubiquitin-protein ligase Mdm2; assay: Protac activity at CRBN/MDM2 in human RS4:11 cells assessed MDM2 degradation at 10 to 100 nM measured after 1 hr by immunoblot analysis; type: cell-based
RS4-11 [34] = assay: Induction of apoptosis in human RS4:11 cells by Annexin-V-FITC/propidium iodide staining based flow cytometry relative to control; type: functional, cell-based
[35] = target: T1, Protein cereblon/E3 ubiquitin-protein ligase Mdm2; assay: Protac activity at CRBN/MDM2 in human RS4:11 cells assessed as upregulation of MDM2 expression at 1 uM measured after 6 hrs by qRT-PCR method; type: cell-based
[36] = target: T1, Protein cereblon/E3 ubiquitin-protein ligase Mdm2; assay: Protac activity at CRBN/MDM2 in human RS4:11 cells assessed as upregulation of P21 expression at 1 uM measured after 6 hrs by qRT-PCR method; type: cell-based
[37] = target: T1, Protein cereblon/E3 ubiquitin-protein ligase Mdm2; assay: Protac activity at CRBN/MDM2 in human RS4:11 cells assessed as effect on TP53 expression at 1 uM measured after 6 hrs by qRT-PCR method; type: cell-based

For `CCOc1cc(C(C)(C)C)ccc1C1=N[C@@H](c2ccc(Cl)cc2)[C@@H](c2ccc(Cl)cc2)N1C(=O)N1CCN(CC#Cc2cccc3c2CN(C2CCC(=O)NC2=O)C3=O)CC1` (some centres undefined), the IC50 (RS4-11 [1]) was 3.2 nM, the Activity (RS4-11 [2]) was “Active” and the Activity [3] was “Active”. The Activity [4] was “Active”, the Activity [5] was “Active” and the Activity [6] was “Tde”. For the same compound, the Emax [7] was 90%, the Activity [8] was “Dose-dependent effect” and the DC50 [8] was 23 nM. For the same compound, the Activity [9] was “Active”, the Activity [10] was “Active” and the Activity [11] was “Active”. For the same compound, the Activity [12] was “Active”, the Activity [13] was “Active” and the Activity [14] was “inactive”. For the same compound, the Activity [15] was “Active”, the Activity [16] was “Active” and the Activity [17] was “Active”. For the same compound, the Activity (RS4-11 [18]) was “Active”, the Activity (RS4-11 [19]) was “Active” and the viability at 0.01 µM (RS4-11 [20]) was 79.2%. It also gave an Activity (RS4-11 [21]) of 10.5%, an Activity (RS4-11 [22]) of 10.1% and an Activity (RS4-11 [23]) of 0.2%. For the same compound, the viability at 0.1 µM (RS4-11 [24]) was 26%, the Activity (RS4-11 [25]) was 22.3% and the Activity (RS4-11 [26]) was 51.6%. It also gave an Activity (RS4-11 [27]) of 0.1%, a viability at 1 µM (RS4-11 [28]) of 28.8% and an Activity (RS4-11 [29]) of 27.1%. For the same compound, the Activity (RS4-11 [30]) was 43.9%, the Activity (RS4-11 [31]) was 0.27% and the Activity [32] was “Active”. The Activity [33] was “Active” and the Activity (RS4-11 [34]) was “Dose-dependent effect”.
`CCOc1cc(C(C)(C)C)ccc1C1=N[C@@H](c2ccc(Cl)cc2)[C@@H](c2ccc(Cl)cc2)N1C(=O)N1CCN(CCCC#Cc2cccc3c2CN(C2CCC(=O)NC2=O)C3=O)CC1` (some centres undefined) was tested, and the Activity (RS4-11 [2]) was “Active”.
With `CCOc1cc(C(C)(C)C)ccc1C1=N[C@@H](c2ccc(Cl)cc2)[C@@H](c2ccc(Cl)cc2)N1C(=O)N1CCN(CCC#Cc2cccc3c2CN(C2CCC(=O)NC2=O)C3=O)CC1` (some centres undefined) the Activity (RS4-11 [2]) was “Active”.
For `CCOc1cc(C(C)(C)C)ccc1C1=N[C@H](c2ccc(Cl)cc2)[C@H](c2ccc(Cl)cc2)N1C(=O)N1CCN(C(=O)CNC(=O)CCCC#Cc2cccc3c2CN(C2CCC(=O)NC2=O)C3=O)CC1` (some centres undefined), the Activity [3] was “Active”.
`CCOc1cc(C(C)(C)C)ccc1C1=N[C@@H](c2ccc(Cl)cc2)[C@@H](c2ccc(Cl)cc2)N1C(=O)N1CCNCC1` was tested, and the Activity [35] was “Active”, the Activity [36] was “Active” and the Activity [37] was “inactive”. For the same compound, the viability at 0.01 µM (RS4-11 [20]) was 84.2%, the Activity (RS4-11 [21]) was 10.5% and the Activity (RS4-11 [22]) was 5.37%. For the same compound, the Activity (RS4-11 [23]) was 0.00582%, the viability at 0.1 µM (RS4-11 [24]) was 84.4% and the Activity (RS4-11 [25]) was 10.1%. It also gave an Activity (RS4-11 [26]) of 5.45%, an Activity (RS4-11 [27]) of 0% and a viability at 1 µM (RS4-11 [28]) of 69.5%. It also gave an Activity (RS4-11 [29]) of 13.7%, an Activity (RS4-11 [30]) of 16.3% and an Activity (RS4-11 [31]) of 0.46%.
In the case of `CCOc1cc(C(C)(C)C)ccc1C1=N[C@@H](c2ccc(Cl)cc2)[C@@H](c2ccc(Cl)cc2)N1C(=O)N1CCN(C(=O)CCC#Cc2cccc3c2CN(C2CCC(=O)NC2=O)C3=O)CC1` (some centres undefined), the Activity [3] is reported as “Active”.
In the case of `CCOc1cc(C(C)(C)C)ccc1C1=NC(c2ccc(Cl)cc2)C(c2ccc(Cl)cc2)N1C(=O)N1CCN(CC#Cc2cccc3c2CN(C2CCC(=O)NC2=O)C3=O)CC1` (racemic), the IC50 (RS4-11 [1]) is reported as 7.2 nM, the Activity (RS4-11 [2]) is reported as “Active” and the Activity [3] is reported as “Active”. For the same compound, the Activity [4] was “Active” and the Activity [5] was “Active”.
